Source: paper PMC9814918, “Rapid optimisation of fragments and hits to lead compounds from screening of crude reaction mixtures” (Communications Chemistry, 2020)
Read-outs that look alike come from different tables or passages of the source.

What was measured:
Hsp90 [1] = target: T1, Hsp90 (Homo sapiens, UniProt P07900); assay: SPR off-rate (koff) of crude reaction mixtures and starting materials; type: binding; conditions: 25 °C
T1 construct: N-terminal domain of human Hsp90α (residues 1–236); made in house; host or cells: BL21 cells (E. coli)
Description: (§1) The off-rate or koff for dissociation of each of the 83 CRMs from Hsp90 and PDHK2 was measured in duplicate by SPR and is shown in Supplementary Table 1. Failure to obtain a koff value for some CRMs (not determined, ND) was due to poor signal and was most marked for PDHK2.
(§2) Both proteins (human PDHK2 (residues 16–407) and N-terminal domain of human Hsp90α (residues 1–236)) were expressed as an N-terminal His tag fusion protein with a TEV protease cleavage in BL21 cells and purified on a Ni^2+ affinity followed by size-exclusion column, details as previously described[13],[27]. Uncleaved His-tagged variants were used in SPR experiments; tags were removed for crystallisation.
(§3) SPR experiments were conducted on T200 and T100 BIAcore instruments (GE Healthcare) at 25 °C. The His-tagged proteins were immobilised on a series of S NTA chips, and the running buffer with 10 mM HEPES, pH 7.4, 150 mM NaCl, 0.05% P-20, 0.025 mM EDTA and 1% DMSO was used. The sensor surface was regenerated between cycles to eliminate any carryover of protein and/or analyte. Details are as described previously.

PDHK2 [2] = target: T2, PDHK2 (Homo sapiens, UniProt Q15119); assay: as above; type: binding
T2 construct: human PDHK2 (residues 16–407); His tag with TEV protease cleavage site (N, cleaved yes); made in house; host or cells: BL21 cells (E. coli)
Description: as §1, §2, §3

Hsp90 [3] = target: T1, Hsp90; assay: KD by SPR titration of purified compounds; type: binding; conditions: purified product of the CRM, 25 °C, average of at least two determinations, read-out: KD (SPR) (µM) of pure
From the text: Table 3 summarises for each of the purified compounds from these nine CRMs, the results of a manual soaking of the purified compound or the CRM into Hsp90 crystals, and the measurement for the purified compounds of solubility and KD measured by both SPR titration and by isothermal titration calorimetry (ITC). […] This leaves anomalies for seven CRMs that gave SM. One of these had low solubility (CRM 75), leaving six CRMs giving SM on repeated manual soaking to explain.
as §3

Hsp90 [4] = target: T1, Hsp90; assay: Isothermal titration calorimetry; conditions: read-out: KD measured by ITC for binding to Hsp90
Description: ITC experiments were conducted at 25 °C by titration of a stock sample of 100 µM compound onto a solution of 10 µM Hsp90 in a GE ITC200 instrument.

PDHK2 [5] = target: T2, PDHK2; assay: Soak of purified enantiomers into PDHK2 crystals; type: binding; conditions: 2 days, 2 mM
Description: CRM number 11 is a racemate of two enantiomers, 23 and 24. […] A PR was obtained for all three of the soaks of CRM number 11 in the full XChem screen that selected just the higher-affinity eutomer 23.
A final concentration of 2 mM of each of the 13 CRMs and 17 pure compounds was added into crystal drops of PDHK2 in triplicate for soak-time durations of 2–4 h, O/N and 2 days at 4 °C. In addition, the final compound concentrations of 0.5 mM and 1 mM were added into PDHK2 crystal drops in triplicate, which were subsequently left to soak for 2 days also at 4 °C. Glycerol was added as a cryoprotectant (at a final concentration of 20%) by ECHO acoustic transfer shortly before mounting the crystals in cryo-cooled pucks. All data were collected on beamline I04-1 in automated mode and autoprocessed using xia2[23].

PDHK2 [6] = target: T2, PDHK2; assay: FP assay; type: binding; conditions: PDHK2, purified enantiomer; read-out: Kd determined by FP assay
[7] = Hsp90, SPR, CRM (SM1, SM2: starting material), read-out: koff CRM

Row | koff (Hsp90 [1]; [7]) [s⁻¹] | koff (Hsp90 [1]; SPR, CRM unpurified (SM1/SM2 head lines: starting material), duplicate, 1 given to all koff >= 1 sec-1 (limit of assay sensitivity), read-out: koff s-1 Hsp90) [s⁻¹] | koff (PDHK2 [2]; CRM unpurified (SM1/SM2 head lines: starting material), duplicate, 25 °C, 1 given to all koff >= 1 sec-1 (limit of assay sensitivity), read-out: koff s-1 PDHK2) [s⁻¹] | koff (PDHK2 [2]; read-out: koff for PDHK2) [s⁻¹] | Kd (Hsp90 [3]) [µM] | Kd (Hsp90 [4]) [mM] | crystal structure from soak of purified enantiomer into PDHK2 crystals (PDHK2 [5]) | Kd (PDHK2 [6]) [µM] | SMILES
1 | > 1 | ≥ 1 | ≥ 1 | > 1 | 2000 | 2 | – | – | NC(=O)c1ccc(O)cc1O [SM1]
2 | – | – | – | – | – | – | structures were obtained | 0.14 | COc1cc2c(cc1OC)[C@H](c1cccnc1)N(C(=O)c1ccc(O)cc1O)CC2 [Compound 23]
3 | 0.2 | – | – | 0.083 | 2 | – | – | – | CN(C(=O)c1ccc(O)cc1O)c1ccc(C(N)=O)cc1 [SM2]
4 | – | – | – | – | – | – | structures were obtained | 17 | COc1cc2c(cc1OC)[C@@H](c1cccnc1)N(C(=O)c1ccc(O)cc1O)CC2 [Compound 24]
